Assays:
[1] = test system: MSSA; assay: LGX staphylocoagulase fluorescence assay, MSSA isolates; type: cell-based, Staphylococcus aureus
Description: (§1) Each sample was rinsed liberally in sterile 1×PBS and varying concentrations of bacterial suspension from 10^0-10^6 were generated by serial dilution in 1×PBS. Additionally, bacterial cultures were furthermore maintained on nutrient agar to assess the coagulase status of the isolate.
(§2) To determine the effects of varying bacterial concentrations with respect to bacterial strains and concentrations of the compounds according to the present invention on staphylocoagulase activity, 100 and 50 μM solutions containing LGX were prepared in 1×PBS with the addition of 0.05 M Tris Buffer and 0.1 M NaCl to maintain a pH of 8.5 using LGX dissolved in MeOH so that final concentration of methanol was no more than 2.5%. Furthermore, an appropriate concentration (100 μM and 50 μM, respectively) of human prothrombin was added to the solution.
(§3) The plate reader used was a Fluostar Optima, and the plates used were Nunclon Surface 96 well plates. Positive controls for each experiment was a strain of MRSA, and the negative control for each experiment was a strain of E. coli, both of which were picked at random to ensure there was no bias within the data. A 1:1 ratio of the LGX solution with PBS was also assayed as “LGX alone” sample, which has been designated as a black line on the graphs below. n=3 cultures were assayed in each case.
(§4) Clinical isolates of Methicillin Resistant Staphylococcus Aureus (MRSA), Methicillin Sensitive Staphylococcus Aureus (MSSA), Staphylococcus Epidermidis, Eschericia coli and other staphyloccal species were cultured on nutrient agar prior to being grown overnight in nutrient broth under shaking conditions at 37° C. Each sample was rinsed liberally in sterile 1×PBS and varying concentrations of bacterial suspension from […] were generated by serial dilution in 1×PBS. Additionally, bacterial cultures were furthermore maintained on nutrient agar to assess the coagulase status of the isolate.
(§5) To determine the effects of varying bacterial concentrations with respect to bacterial strains and LGX concentrations on staphylocoagulase activity, 100 and 50 μM solutions of LGX were prepared in 1×PBS with the addition of 0.05 M Tris Buffer and 0.1 M NaCl to maintain a pH of 8.5 using LGX dissolved in MeOH so that final concentration of methanol was no more than 2.5%. Furthermore, an appropriate concentration (100 μM and 50 μM, respectively) of human prothrombin was added to the solution. 90 μl of LGX solution in addition to each respective bacterial isolate at varying concentrations was added to a microtitre plate. […] The plate reader used was a Fluostar Optima, and the plates used were Nunclon Surface 96 well plates.

[2] = test system: S. epidermidis; assay: LGX staphylocoagulase fluorescence assay, S. epidermidis; type: cell-based, Staphylococcus Epidermidis; settings: for fluorescence over the 6 hour time period: S. epidermidis, high and low concentrations
Description: as §1, §2
The plate reader used was a Fluostar Optima, and the plates used were Nunclon Surface 96 well plates. Positive controls for each experiment was a strain of MRSA, and the negative control for each experiment was a strain of E. coli, both of which were picked at random to ensure there was no bias within the data. A 1:1 ratio of the LGX solution with PBS was also assayed as “LGX alone” sample, which has been designated as a black line on the graphs below. n=3 cultures were assayed in each case. […]
(§6) To determine the effects of varying bacterial concentrations with respect to bacterial strains and LGX concentrations on staphylocoagulase activity, 100 and 50 μM solutions of LGX were prepared in 1×PBS with the addition of 0.05 M Tris Buffer and 0.1 M NaCl to maintain a pH of 8.5 using LGX dissolved in MeOH so that final concentration of methanol was no more than 2.5%. […] The plate reader used was a Fluostar Optima, and the plates used were Nunclon Surface 96 well plates.

[3] = test system: coagulase negative staphylococci; assay: LGX staphylocoagulase fluorescence assay, coagulase negative staphylococci panel; type: cell-based
Description: as §1, §2, §3

[4] = test system: M. luteus; assay: LGX system, M. luteus; type: cell-based
Description: as §1
as §2, with “Furthermore, an appropriate concentration (100 μM and 50 μM, respectively) of human prothrombin was added to the solution.” left out
The plate reader used was a Fluostar Optima, and the plates used were Nunclon Surface 96 well plates. […]
as §6

[5] = test system: MRSA and MSSA; assay: LGX staphylocoagulase fluorescence assay, MRSA and MSSA together; type: cell-based, Staphylococcus aureus
Description: as §1, §2, §3, §4, §5

[6] = test system: S. aureus; assay: LGX test on volunteers' nasal swabs with prothrombin or prethrombin; type: cell-based, Staphylococcus aureus; settings: for samples tested positive for S. aureus: threshold 20,000 RFU
Description: A population of 113 volunteers were administered a “set” of swabs, comprising two swabs that were pre-moistened with sterile H2O, and one swab that was dry. Each volunteer swabbed the internal periphery of each nostril with the two moistened swabs. Each volunteer then subsequently swabbed the internal periphery of each nostril with the dry swab. The swabs were then placed into amies transport medium to maintain bacterial cell viability. Each sample was anonymous and the study was randomised.
A 100 μL solution of 100 μM LGX with either 1×prothrombin or 1×prethrombin (buffered to pH 8.5 with Tris base and NaCl), was pipetted into sterile 1.5 mL eppendorf tubes. Each moistened swab was placed into the eppendorf tube, and cut to a length to facilitate closure of the tube, with a pair of sterilised scissors. Each tube was subjected to vigorous agitation and the swab tips were removed with sterile forceps. The remaining solution was subsequently pipetted into a microtitre plate (Nunclon 96 well plates). The relative fluorescence of the sample was then recorded every fifteen minutes over a six hour time period (λex.=488 nm and λem=525 nm).
In tandem with this, the remaining swabs (in amies transport medium) were transferred onto pre warmed mannitol salt agar (chromogenic agar for the determination of S. aureus) plates and incubated for up to 48 hours at 37° C. The colour change and colony appearance of the bacteria was noted. […] Following this, 20 separate, discrete colonies were sub-cultured onto nutrient agar and also onto Baird Parker Agar (agar for the determination of S. aureus and S. epidermidis). After an overnight culture at 37° C., colony morphology and appearance was observed (S. aureus colonies are large with a pale “halo” surrounding the colonies, S. epidermidis colonies are small and black).
Additionally, isolates from the nasal swabs cultured on nutrient agar were tested for coagulase activity using a staphylase test kit (oxoid). Loopfuls of bacteria were assayed based on coagulase mediated clumping of fibrinogen-sensitised ovine blood cells.
A final test to determine the identification of the bacteria within each sample, a gram stain was performed. This is based on the presence of peptidoglycan in gram positive cells and their ability to retain crystal violet. S. aureus is a gram positive bacterium. Briefly, a drop of sterile dH2O was placed on a microscope slide and a small amount of culture was applied to this and allowed to air dry. The slide was passed though a flame to fix the bacteria. Crystal Violet was applied to each slide, followed by washing with dH2O. Iodine was then added to the slides, followed by washing with dH2O and subsequent decolourisation with ethanol and another wash with dH2O. Each slide was counterstained with carbol fushchin (for gram negative), rinsed again and allowed to dry.
Each swab sample was examined for the presence of S. aureus based on the above identification techniques, and termed “positive” or “negative”. The results were compared to the finding of the assay of the current invention (LGX test), with either prethrombin or prothrombin, and plotted on a bar chart as a function of relative fluorescence units.

In the case of `CC(C)[C@H](NC(=O)OC(C)(C)C)C(=O)N1CCC[C@H]1C(=O)N[C@@H](CCCNC(=N)N)C(=O)Nc1ccc2c(c1)Oc1cc(NC(=O)[C@H](CCCNC(=N)N)NC(=O)[C@@H]3CCCN3C(=O)[C@@H](NC(=O)OC(C)(C)C)C(C)C)ccc1C21OC(=O)c2ccccc21` (stereo partly drawn) [LGX, Rho-(Arg-Pro-Val-NHBoc)2], the “samples reaching maximum fluorescence” value ([1]; 50 μM LGX, MSSA 10^2, 6 hours) is reported as “no samples reached maximum fluorescence”, the “samples reaching the maximum reading of 65,000 RFU within 2.5 hours” value ([1]; 50 μM LGX, MSSA 10^3) is reported as 25% and the “samples that had reached maximum fluorescence within 6 hours” value ([1]; 50 μM LGX, MSSA 10^3) is reported as 60%. The “samples failed to reach maximum fluorescence within 6 hours” value ([1]; 50 μM LGX, MSSA 10^5) was 5%, the “samples reaching the maximum reading of 65,000 RFU within 2 hours” value ([1]; 50 μM LGX, MSSA 10^5) was 75% and the “time by which maximum fluorescence level was reached” value ([1]; 50 μM LGX, MSSA 10^6) was no more than 2 h. The “samples achieving a fluorescence reading of 20,000 within 1 hour” value ([1]; 100 μM LGX, MSSA 10^2) was 90%, the “samples reached maximum fluorescence over a 6 hour time period” value ([1]; 100 μM LGX, MSSA 10^2) was 25% and the “samples reached maximum fluorescence within 2 hours” value ([1]; 100 μM LGX, MSSA 10^2) was 5%. For the same molecule, the “samples reached maximum fluorescence within 4 hours” value ([1]; 100 μM LGX, MSSA 10^3) was 45%, the “samples in which fluorescence reached its upper limits within 1 hours” value ([1]; 100 μM LGX, MSSA 10^4) was 70% and the “samples remained below maximum fluorescence” value ([1]; 100 μM LGX, MSSA 10^4) was 20%. The “LGX SYSTEM” value ([1]; MSSA) was “+”, the “fluorescence over the 6 hour time period” value ([2]; 50 μM LGX, FIG. 13) was “no increase in fluorescence was observed” and the “fluorescence over the 6 hour time period” value ([2]; 100 μM LGX, FIG. 14) was “no increase in fluorescence was observed”. The “LGX SYSTEM” value ([2]; S. EPIDERMIDIS) was “−”, the “samples above 20,000 fluorescence units after 1 hour” value ([3]; 50 μM LGX, all concentrations of bacteria, coagulase negative staphylocci) was 0% and the “fluorescence over the duration of the experiment” value ([3]; 50 μM LGX, coagulase negative strains 10^6, 10^5, 10^3 and 10^2, FIG. 8) was “remain consistently low”. For the same molecule, the “fluorescence response within 1 hour” value ([3]; 50 μM or 100 μM LGX, coagulase negative staphylococci) was no more than 5000 fluorescence units, the “fluorescence across the 6 hour time period” value ([3]; 100 μM LGX, coagulase negative strains, FIG. 9) was “remained consistently low” and the “LGX SYSTEM” value [4] was “−”. The “coagulase result with LGX system” value [4] was “negative”, the “isolates failed to reach a fluorescence reading of 20,000 within 30 minutes” value ([5]; 50 μM LGX, 10^2 cell concentration of MRSA and MSSA) was 20% and the “isolates failed to reach a fluorescence reading of 20,000 within 30 minutes” value ([5]; 50 μM LGX, 10^3 cell concentration of MRSA and MSSA) was 5%. The “time for fluorescence to reach a maximum” value ([5]; 50 μM LGX, MRSA and MSSA 10^5, FIG. 13) was “approximately 3 hours”, the “fluorescence reading reached (almost instantaneous reaction)” value ([5]; 50 μM LGX, MRSA and MSSA 10^6, FIG. 13) was 65,000 RFU and the “samples above 20,000 fluorescence units after 1 hour” value ([5]; 50 μM LGX, all concentrations of bacteria, MRSA and MSSA) was “more than 80%”. The “samples with a fluorescence reading greater than 20,000 within 30 minutes” value ([5]; 100 μM LGX, 10^3 cell concentration and above) was 100%, the “fluorescence reading reached (almost instantaneous reaction)” value ([5]; 100 μM LGX, MRSA and MSSA 10^4 and 10^3, and MSSA 10^2, FIG. 14) was 65,000 RFU and the “response compared with 100 and 500 μM coumarin system” value ([5]; 100 μM LGX, MRSA and MSSA at 10^2, FIG. 12) was “superior response in terms of selectivity and speed”. The “lowest bacterial concentration at which presence of bacteria is detected” value ([5]; no culturing, fluorescence 525 nm (ex 488 nm)) was 10^2, the “sensitivity advantage over N-t-BOC-val-pro-arg-7-amido-4-methylcoumarin” value ([5]; response at 10^2 Staphylococcus aureus units, 525 nm (ex 488 nm)) was “several orders of magnitude (10^4 bacteria)” and the “sensitivity relative to the existing commercial dye system” value ([5]; staphylothrombin assay for detection of MRSA and MSSA, estimate) was 10 times. The “time in which S. aureus was efficiently detected” value ([6]; 100 μM LGX with 1×prethrombin) was 15 min, the “samples tested positive for S. aureus” value ([6]; 100 μM LGX with 1×prethrombin, 15 minutes) was “approximately 49 samples” and the “samples tested positive for S. aureus” value ([6]; 100 μM LGX with 1×prethrombin, 60 minutes) was “approximately 49 samples”. For the same molecule, the “time in which S. aureus was efficiently detected” value ([6]; 100 μM LGX with 1×prothrombin) was 15 min, the “samples tested positive for S. aureus” value ([6]; 100 μM LGX with 1×prothrombin, 15 minutes, 113 volunteers) was “approximately 29 samples” and the “samples tested positive for S. aureus” value ([6]; 100 μM LGX with 1×prothrombin, 60 minutes) was “approximately 34 samples”.
